Measured values taken from patent US20150366827A1, “COMPOSITIONS AND METHODS FOR MIXING AND APPLYING MIXED OXIDANT COMPOSITIONS FOR DAIRY ANIMAL TREATMENT” (GEA Farm Technologies, Inc., priority 2009, published 2015).
One block for each compound: values may come before it.

Experiments:
[1] = Loss of mixed oxidant activity on exposure to additives (iodometric thiosulfate titration); type: physicochemical; design: % Loss of mixed oxidant activity at (23° C.) / % Loss of Activity at (23° C.): concentration or dose not given beside the values; conditions: for % Loss of mixed oxidant activity after 24 hours at (23° C.) exposure to mixed oxidant: emollients, beginning mixed oxidant 3800-4100 ppm as available chlorine
Experimental: The activity of a mixed oxidant system is preferably measured with an iodometric titration by the addition of excess iodide and acid and titration of the resulting iodine (in the form of triiodide) with sodium thiosulfate. This method can measure the various oxidants in the mixture, comprising chlorine.
(§1) A teat dip composition is defined as stable when the activity of the mixed oxidant decreases by less than about 25% over a 12 hour to 72 hour period. The Tables 1 through 3, and 5 below show the stability of mixed oxidants when exposed to various additives for 12 hours to 96 hours. […] In each Table 1 through 5, the beginning mixed oxidant titrated at between 3800 ppm to 4100 ppm measured as available chlorine.

[2] = Loss of color of colorants exposed to mixed oxidant, judged on teat; type: physicochemical, dairy animal
Experimental: as §1
Colorants are added to teat dips to provide a visual indicator that a teat dip was applied to a diary animal teat.
Preferably, a stable colorant is added to the teat sanitizer composition, but the colorant must be visible on the teat at the Ready-to-Use concentration. Some colorants are unacceptable because they are stable in their color in solution, but they are not visible on the teat after an exposure to the mixed oxidant for a period of time.

[3] = chelators, 0.1 days exposure to mixed oxidant, 23° C.

Stability of chelator with mixed oxidant (in words) ([1]; chelators compatible with mixed oxidant): stable
% Loss of mixed oxidant activity at (23° C.) ([1]; chelators, 2 days exposure to mixed oxidant, 23° C.): 3.5%
Compound: O=P(O)(O)OP(=O)(O)OP(=O)(O)O [Na, sodium Tripolyphosphate]

Compound: EDTA 100
% Loss of mixed oxidant activity at (23° C.) [1, 3]: 94%

% Loss of Activity at (23° C.) ([1]; antimicrobials, 2 days exposure to mixed oxidant, 23° C.): 6%
Compound: CCCCCCCCCCCCc1ccc(S(=O)(=O)O)cc1 [DDBSA, dodecylbenzenesulfonic acid]

% Loss of mixed oxidant activity after 24 hours at (23° C.) exposure to mixed oxidant ([1]; 23° C.): 11%
Compound: CC(C)CCCCCCCCCCCCCCC(=O)OC(C)C [Isopropyl Isostearate]

Color intensity on teat after 1 day exposure to 4000 ppm mixed oxidant [2]: Clear
Visibility of the dye once applied to a dairy animal teat ([2]; after exposure to mixed oxidant): unacceptable
Color in the composition after exposure to the mixed oxidant ([2]; in solution, after exposure to mixed oxidant): still has some color
Compound: O=C([O-])C1=NN(c2ccc(S(=O)(=O)[O-])cc2)C(=O)C1N=Nc1ccc(S(=O)(=O)[O-])cc1.[Na+].[Na+].[Na+] (stereo not drawn) [Yellow #5]

Compound: Nonylphenol ethoxylate
% Loss of mixed oxidant activity at (23° C.) ([1]; surfactants, 2 days exposure to mixed oxidant, 23° C.): 55%

% Loss of mixed oxidant activity after 24 hours at (23° C.) exposure to mixed oxidant ([1]; 23° C.): 11%
Compound: CCCCCCCCCCCCCCCCCC(=O)OCCCCCCCC [Octyl stearate]

Color intensity on teat after 1 day exposure to 4000 ppm mixed oxidant [2]: Clear
Compound: CN(C)c1ccc2nc3ccc(=[N+](C)C)cc-3sc2c1 [Methylene Blue]

% Loss of mixed oxidant activity at (23° C.) ([1]; surfactants, 1 day exposure to mixed oxidant, 23° C.): 56%
Compound: Cocamido propyl betaine

Color intensity on teat after 1 day exposure to 4000 ppm mixed oxidant [2]: Clear
Compound: O=S(=O)([O-])c1ccc(N=Nc2c(O)ccc3cc(S(=O)(=O)[O-])ccc23)cc1.[Na+].[Na+] [Yellow #6]

Compound: O=C([O-])[C@H](O)[C@@H](O)[C@H](O)[C@H](O)CO.[Na+] [Sodium Gluconate]
% Loss of mixed oxidant activity at (23° C.) [1, 3]: 90%

Color intensity on teat after 1 day exposure to 4000 ppm mixed oxidant [2]: Clear
Compound: CCN(Cc1cccc(S(=O)(=O)[O-])c1)c1ccc(C(=C2C=CC(=[N+](CC)Cc3cccc(S(=O)(=O)[O-])c3)C=C2)c2ccccc2S(=O)(=O)[O-])cc1.[Na+].[Na+] [FD&C Blue 1]

% Loss of mixed oxidant activity after 24 hours at (23° C.) exposure to mixed oxidant ([1]; 23° C.): 13%
Compound: CC(C)CCCCCCCCCCCCCCCOC(=O)CCCCC(=O)OCCCCCCCCCCCCCCCC(C)C [Diisostearyl Adipate]

% Loss of mixed oxidant activity after 24 hours at (23° C.) exposure to mixed oxidant ([1]; 23° C.): 78%
Compound: OC[C@@H](O)[C@@H](O)[C@H](O)[C@@H](O)CO [Sorbitol]

% Loss of mixed oxidant activity after 24 hours at (23° C.) exposure to mixed oxidant ([1]; 23° C.): 97%
Compound: OCC(O)CO [Glycerin]

% Loss of mixed oxidant activity after 24 hours at (23° C.) exposure to mixed oxidant ([1]; 23° C.): 71%
% Loss of mixed oxidant activity after 24 hours at (23° C.) exposure to mixed oxidant ([1]; 23° C., listed as Propylene Glycol): 7%
Compound: CC(O)CO (stereo not drawn) [Propylene glycol]

Color intensity on teat after 1 day exposure to 4000 ppm mixed oxidant [2]: Clear
Compound: COc1cc(S(=O)(=O)[O-])c(C)cc1N=Nc1c(O)ccc2cc(S(=O)(=O)[O-])ccc12.[Na+].[Na+] [FD&C Red #40]
